According to US6613506B1, “Compositions and methods for inhibiting human immunodeficiency virus infection by down-regulating human cellular genes” (Subsidiary No. 3, Inc., priority 2000, dated 2003):

Experiments:
[1] = tested on: latent HIV provirus in OM10.1 cells; test: Induction of latent HIV provirus by TNF-α in OM10.1 cells (CD4 retention, p24); assay type: cell-based, HIV-1
Method: In order to determine p24 expression in HIV-infected cells, the cells were first washed twice with Assay Buffer. About 10^6 cells were suspended in 100 μL Assay Buffer, mixed with 2 mL of Ortho PermeaFix Solution (available from Ortho Diagnostics), and incubated for 40 min. at room temperature. After centrifugation at 1200 rpm for 4 min. at 4EC, the cells were resuspended in 2 mL Wash Buffer (500 mL PBS, 25 mL fetal bovine serum, 1.5% bovine serum albumin and 0.0055% EDTA) for 10 min. at room temperature. After centrifugation, the cells were resuspended in 50 ΦL Wash Buffer and mixed with 1:500 dilution of an IgG2a antibody for 20 min. at 4EC, followed by incubation with 5-10 ΦL of anti-p24 antibody (KC57-FITC, available from Coulter) for 30 min. at 4EC. The cells were then washed twice with Wash Buffer and analyzed by flow cytometry.
One strategy selected for GSEs which suppressed productive infection of cells by HIV. The second strategy selected for GSEs which suppressed induction of the latent provirus in OM10.1 cells. When OM10.1 cells were treated with TNF-α and stained with an antibody specific for the cell surface molecule CD4, a rapid loss of CD4 expression was observed (FIG. 1). In contrast, the vast majority of the uninduced OM10.1 cells retained CD4 expression. It is believed that activation of the latent virus in OM10.1 cells by TNF-α leads to the production of viral protein gp120, which binds to cytoplasmic CD4, thereby preventing its translocation to the cell surface. A diminution of CD4^+ OM10.1 cells also correlates with an increased production of viral protein p24 in the cells following TNF-α induction.
OM10.1 cells were cultured in RPMI 1640 glucose-free media prior to and during incubation with NADH dehydrogenase inhibitors and TNF-á induction. The inhibitors were added to the cells followed by TNF-á induction 1-2 hours later. The expression of CD4 by the cells was assessed by anti-CD4 antibody staining and flow cytometry after 24 hour incubation at 37° C.

[2] = tested on: HIV-1SF33; test: Productive infection of activated human PBLs with HIV-1SF33, flow cytometry of CD3+ T cells; assay type: cell-based; details: for % CD4^+ in population / % p24+ cells among CD4+ T cells: HIV +, day 6; for % CD4^+ in population: CD3+ T cells of human PBLs; for % p24+ cells among CD4+ T cells: human PBLs
Method: (§1) Human peripheral blood leukocytes (PBLs) were isolated using Ficoll-Hypaque density gradient separation. Cells were washed twice and resuspended in RPMI+10% FBS+2% human AB serum+penicillin/streptomycin/glutamine+100 Units/mL of IL-2 at a concentration of 0.5×10^6 cells/mL. PBLs were then activated with phytohemagglutinin at 0.5 μg/mL and placed in a humidified incubator at 37° C./5% CO2. After two days of activation, 10^6 cells were infected with HIV-1SF33 at TCID50 of 1000, in the presence of various concentrations of mofarotene: 0 μM, 1 μM, 0.5 μM, 0.1 μM, and 0.05 μM. A separate set of uninfected samples under identical concentrations of mofarotene were also maintained as controls. The samples were analyzed by flow cytometry at day 4 and day 6 post infection. The cells were gated for CD3 expression (for T cells). Then the expression of CD4 and viral p24 and CD4 was examined by bivariate dot plot.
In order to test the ability of a NADH dehydrogenase inhibitor to prevent productive infection of T cells by HIV, human PBLs were isolated and infected with HIVSF33 in the presence of various concentrations of mofarotene.

[3] = tested on: OM10.1 cells; assay type: cell-based; details: human, 24 h, 100 nM
[4] = tested on: human peripheral blood leukocytes (PBLs); test: Uninfected human PBL controls with mofarotene alone (CD4, p24, CD3); assay type: cell-based; details: for % CD4^+ in population / % p24^− in CD4^− T population: HIV −; for % CD4^+ in population: CD3+ T cells of human PBLs; for % p24^− in CD4^− T population: human PBLs
Method: as §1

C/C(=C\c1ccc(OCCN2CCOCC2)cc1)c1ccc2c(c1)C(C)(C)CCC2(C)C [mofarotene, Mofarotene]
cells that retained CD4 expression ([1]; 100 nM of mofarotene, TNF-α-induced OM10.1 cells): 80% | inhibition of induction of latent HIV provirus (retention of CD4 expression) ([1]; TNF-α-induced OM10.1 cells, 24 hour incubation, FIG. 5 / FIG. 6): inhibited HIV-1 induction at even lower concentrations | intracellular p24 levels ([1]; treated cells compared with untreated controls): suppressed intracellular p24 levels | % CD4^+ in population ([2]; mofarotene 0.05 μM): 18% | % p24+ cells among CD4+ T cells ([2]; mofarotene 0.05 μM): 20.5% | % CD4^+ in population ([2]; mofarotene 0.1 μM): 28% | % p24+ cells among CD4+ T cells ([2]; mofarotene 0.1 μM): 11.4% | % CD4^+ in population ([2]; mofarotene 0.5 μM): 24% | % p24+ cells among CD4+ T cells ([2]; mofarotene 0.5 μM): 12.5% | % CD4^+ in population ([2]; mofarotene 1.0 μM): 25% | % p24+ cells among CD4+ T cells ([2]; mofarotene 1.0 μM): 10% | % p24+ cells among CD4+ T cells ([2]; mofarotene 1.0 μM, listed as Mofarotene): 10% | difference between HIV-infected PBLs with or without mofarotene ([2]; day 4 post-infection): little detectable difference | depletion of CD4^+ T cells by HIV infection ([2]; day 6, 1 μM mofarotene): inhibited the depletion of CD4^+ T cells by HIV infection | level of protection (percentage of p24+ CD4+ T cells and of CD4+ cells in CD3+ T cells) versus concentration ([2]; day 6, 1 to 0.05 μM): diminished with decreased concentrations of mofarotene | cells that remained viable [3]: greater than 80% | % CD4^+ in population ([4]; mofarotene 0.05 μM, day 6): 33% | % p24^− in CD4^− T population ([4]; mofarotene 0.05 μM, day 6): 0% | % CD4^+ in population ([4]; mofarotene 0.1 μM, day 6): 34% | % p24^− in CD4^− T population ([4]; mofarotene 0.1 μM, day 6): 0% | % CD4^+ in population ([4]; mofarotene 0.5 μM, day 6): 34% | % p24^− in CD4^− T population ([4]; mofarotene 0.5 μM, day 6): 0% | % CD4^+ in population ([4]; mofarotene 1.0 μM, day 6): 36% | % p24^− in CD4^− T population ([4]; mofarotene 1.0 μM, day 6): 0% | expression level of CD3 on the cell surface ([4]; day 4): nor did it alter the expression level of CD3 on the cell surface | percentage of CD4^+ T cells, mofarotene alone ([4]; day 4): did not significantly alter the percentage of CD4^+ T cells | expression level of CD3 on the cell surface ([4]; day 6): did not alter the expression level of CD3 on the cell surface | increase of the percentage of CD4^+ T cells in uninfected samples by mofarotene alone ([4]; day 6, uninfected samples): up to 4%
